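Results reflect a 48-hour exposure of cells in 96-well plates to compound at five concentrations. At the GI50, growth is halved.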 The source made the active and inactive calls. No stated cut-off is given here; in the data, active = GI50 up to about 1.1 µM and inactive = higher.
Legend:
Test in all cases: NCI tumour cell line growth inhibition, 48 h
SF-295 = test system: SF-295
PC-3 = test system: PC-3
ACHN = test system: ACHN
DU-145 = test system: DU-145
MDA-MB-435 = test system: MDA-MB-435
A549 = test system: A549
NCI-H460 = test system: NCI-H460
IGROV-1 = test system: IGROV-1
NCI-H226 = test system: NCI-H226
OVCAR-4 = test system: OVCAR-4
CAKI-1 = test system: CAKI-1
RXF 393 = test system: RXF 393
U-251 = test system: U-251
SF-539 = test system: SF-539
MDA-N = test system: MDA-N
HOP-92 = test system: HOP-92
786-0 = test system: 786-0
OVCAR-3 = test system: OVCAR-3
SR = test system: SR
EKVX = test system: EKVX
NCI/ADR-RES = test system: NCI/ADR-RES
TK-10 = test system: TK-10
MCF7 = test system: MCF7
OVCAR-5 = test system: OVCAR-5
UO-31 = test system: UO-31
HCT-15 = test system: HCT-15
COLO 205 = test system: COLO 205
Malme-3M = test system: Malme-3M
Hs-578T = test system: Hs-578T
SF-268 = test system: SF-268
OVCAR-8 = test system: OVCAR-8
SK-MEL-5 = test system: SK-MEL-5
SK-MEL-28 = test system: SK-MEL-28
SW-620 = test system: SW-620
SK-MEL-2 = test system: SK-MEL-2
MOLT-4 = test system: MOLT-4
T47D = test system: T47D
SNB-75 = test system: SNB-75
BT-549 = test system: BT-549
HOP-62 = test system: HOP-62
LOX IMVI = test system: LOX IMVI
K562 = test system: K562
MDA-MB-231 = test system: MDA-MB-231
SN12C = test system: SN12C
HCT-116 = test system: HCT-116
SK-OV-3 = test system: SK-OV-3
NCI-H23 = test system: NCI-H23
A498 = test system: A498
HT-29 = test system: HT-29
KM12 = test system: KM12
M14 = test system: M14
CCRF-CEM = test system: CCRF-CEM
UACC-62 = test system: UACC-62
HCC 2998 = test system: HCC 2998
HL-60 = test system: HL-60
RPMI-8226 = test system: RPMI-8226
SNB-19 = test system: SNB-19
UACC-257 = test system: UACC-257
NCI-H522 = test system: NCI-H522

Measured: GI50

CCN1CCC(O)(/C=C/c2ccc(C(C)C)cc2)C(C(=O)/C=C/c2ccc(C(C)C)cc2)C1 (centres undefined)
2000 nM: HCT-15
inactive: SF-295 2900 nM | PC-3 3520 nM | ACHN 1750 nM | DU-145 3340 nM | MDA-MB-435 2960 nM | A549 3370 nM | NCI-H460 1530 nM | IGROV-1 2050 nM | NCI-H226 2820 nM | OVCAR-4 3040 nM | CAKI-1 4340 nM | RXF 393 2560 nM | U-251 2610 nM | SF-539 2290 nM | MDA-N 2370 nM | HOP-92 1850 nM | 786-0 1710 nM | OVCAR-3 2840 nM | SR 1380 nM | EKVX 2220 nM | NCI/ADR-RES 3080 nM | TK-10 2340 nM | MCF7 2460 nM | OVCAR-5 4340 nM | UO-31 2960 nM | COLO 205 2450 nM | Malme-3M 5020 nM | Hs-578T 2310 nM | SF-268 1960 nM | OVCAR-8 1960 nM | SK-MEL-5 4420 nM | SK-MEL-28 4510 nM | SW-620 2670 nM | SK-MEL-2 3080 nM | MOLT-4 1590 nM | T47D 2350 nM | SNB-75 4620 nM | BT-549 4150 nM | HOP-62 3520 nM | K562 2720 nM | MDA-MB-231 1870 nM | SN12C 2470 nM | HCT-116 1750 nM | SK-OV-3 14000 nM | NCI-H23 2380 nM | A498 6380 nM | HT-29 2240 nM | KM12 1850 nM | M14 3100 nM | CCRF-CEM 1160 nM | UACC-62 4150 nM | HCC 2998 1810 nM | HL-60 2980 nM | SNB-19 3800 nM | UACC-257 6670 nM | NCI-H522 2100 nM
active: LOX IMVI 895 nM | RPMI-8226 697 nM

— ChEMBL document CHEMBL1201862, “PubChem BioAssay data set” (2004)
